Data from PMC7465190, “Inhibition of Tyrosyl-DNA Phosphodiesterase 1 by Lipophilic Pyrimidine Nucleosides” (Molecules, 2020).
“Also recorded” adds a separate entry of the source.

Legend:
Tdp1 = Tdp1 (Homo sapiens, UniProt Q9NUW8); test: Real-time detection of Tdp1 activity (fluorophore-quencher oligonucleotide biosensor); assay type: biochemical; conditions: 1.5 nM purified Tdp1, 50 nM biosensor, 26 °C, three independent experiments; read-out: IC50 (inhibition of Tdp-1)
Excerpt: Previously, we designed a real-time oligonucleotide biosensor based on the capability of Tdp1 to remove fluorophore quenchers from the 3′ end of DNA [27]. The single-stranded substrate was a 16-mer oligonucleotide containing both a 5′-FAM fluorophore donor and a quenching 3′-BHQ moiety. When the quencher is removed by Tdp1, FAM fluorescence flares up and can be detected by a fluorimeter. Fluorescence intensity diminishes in the presence of an inhibitor; curves of the obtained Tdp1 activity versus inhibitor concentration can be used to calculate IC50 values. We also investigated some structurally related compounds obtained by previously developed methods; these compounds feature a modification either in a carbohydrate or heterocyclic moiety (Table 1).
This procedure was reported in our previous work. The approach consists of fluorescence intensity measurement in a reaction of quencher removal from a fluorophore quencher–coupled DNA oligonucleotide catalyzed by Tdp1 in the presence of an inhibitor (the control samples contained 1% of DMSO). The reaction mixtures (200 μL) contained Tdp1 buffer (50 mM Tris-HCl pH 8.0, 50 mM NaCl, and 7 mM β-mercaptoethanol), 50 nM biosensor, an inhibitor being tested, and purified Tdp1 (1.5 nM). The biosensor was a single-stranded oligonucleotide (5′-[FAM] AAC GTC AGGGTC TTC C [BHQ]-3′) containing a fluorophore at the 5′ end (5,6-FAM) and Black Hole Quencher 1 (BHQ) at the 3′ end and was synthesized in the Laboratory of Biomedical Chemistry at the Institute of Chemical Biology and Fundamental Medicine (Novosibirsk, Russia).
The reactions were incubated at a constant temperature of 26 °C on a POLARstar OPTIMA fluorimeter (BMG LABTECH, GmbH, Ortenberg, Germany) to measure fluorescence every 55 s (ex. 485/em. 520 nm) during the linear phase (here, data from minute 0 to minute 8). The values of IC50 were determined using a six-point concentration response curve in three independent experiments and were calculated using MARS Data Analysis 2.0 (BMG LABTECH).

[1] = Intrinsic cytotoxicity, EZ4U Cell Proliferation and Cytotoxicity Assay; assay type: cell-based, human; conditions: human, HeLa cells (cervical cancer), 3 days, EZ4U assay
Protocol: (§1) First, we assessed the toxicity of the compounds to HeLa cells (cervical cancer cells). Analysis of the intrinsic cytotoxicity of the compounds was examined in the EZ4U Cell Proliferation and Cytotoxicity Assay (Biomedica, Austria). The tested compounds were added to the medium (the volume of added reagents was 1/100 of the total volume of the culture medium, and the amount of DMSO (dimethyl sulfoxide) was 1% of the final volume), and the cell culture was monitored for 3 days. Control cells were grown in the presence of 1% DMSO. Intrinsic cytotoxicity of the compounds was either absent or negligible at concentrations up to 100 μM (>80% live cells) with the exception of compounds 2b, 2c, and 7, in the presence of which, at a concentration of 100 μM, 30–45% of the cells died (Table 1 and Figure 1).
(§2) Intrinsic toxicity of the compounds to human cell line HeLa (cervical cancer) was examined by means of the EZ4U Cell Proliferation and Cytotoxicity Assay (Biomedica, Wien, Austria), according to the manufacturer’s protocols. The cells were grown in Iscove’s modified Dulbecco’s medium (IMDM) with 40 μg/mL gentamicin, 50 IU/mL penicillin, 50 μg/mL streptomycin (MP Biomedicals), and 10% of fetal bovine serum (Biolot) in a 5% CO2 atmosphere. After formation of a 30–50%-confluent monolayer, one of the tested compounds was added to the medium (the volume of the added reagents was 1/100 of the total volume of the culture medium, and the amount of DMSO was 1% of the final volume), and the cell culture was monitored for 3 days. Control cells were grown in the presence of 1% DMSO. To assess the influence of the inhibitors on the cytotoxic effect of topotecan, the latter from the manufacturer ACTAVIS GROUP PTC ehf. (Bucharest, Romania) was used. First of all, 50% cytotoxic concentrations of topotecan and of each inhibitor were determined to attain a defined single-agent effect. Second, three independent tests were performed with each inhibitor in combination with topotecan.

HeLa cells [2] = test: Cytotoxicity in combination with topotecan, EZ4U assay; assay type: cell-based; conditions: for change of cytotoxicity of the compound in the presence of topotecan (synergy): compound 1, 5, 20, 100 μM with 2 μM topotecan, Figure 2; for sensitizing effect on cytotoxicity of topotecan: Figure 3
Protocol: To study the influence of the inhibitors on the cytotoxic effect of topotecan, the latter from the manufacturer ACTAVIS GROUP PTC ehf. was used. To select a nontoxic but effective concentration of the nucleoside compounds, we investigated their cytotoxicity in the presence of 2 μM topotecan (concentration causing the death of half the HeLa cells). Three independent cytotoxicity assays were performed with each inhibitor in combination with topotecan. For the cells treated with a nucleoside derivative alone, values in the control wells treated with 1% DMSO were set to 100% viability. For the cells treated with a combination of the drugs, the viability of cells treated only with topotecan was set to 100%.
as §2

HeLa cells [3] = test: Intrinsic cytotoxicity, EZ4U Cell Proliferation and Cytotoxicity Assay; assay type: cell-based, human; conditions: for cells died: compound at 100 μM, 3 days
Protocol: as §1, §2

[4] = compound at 20 μM, various doses of topotecan

Sequence of Tdp1 (Q9NUW8 whole entry): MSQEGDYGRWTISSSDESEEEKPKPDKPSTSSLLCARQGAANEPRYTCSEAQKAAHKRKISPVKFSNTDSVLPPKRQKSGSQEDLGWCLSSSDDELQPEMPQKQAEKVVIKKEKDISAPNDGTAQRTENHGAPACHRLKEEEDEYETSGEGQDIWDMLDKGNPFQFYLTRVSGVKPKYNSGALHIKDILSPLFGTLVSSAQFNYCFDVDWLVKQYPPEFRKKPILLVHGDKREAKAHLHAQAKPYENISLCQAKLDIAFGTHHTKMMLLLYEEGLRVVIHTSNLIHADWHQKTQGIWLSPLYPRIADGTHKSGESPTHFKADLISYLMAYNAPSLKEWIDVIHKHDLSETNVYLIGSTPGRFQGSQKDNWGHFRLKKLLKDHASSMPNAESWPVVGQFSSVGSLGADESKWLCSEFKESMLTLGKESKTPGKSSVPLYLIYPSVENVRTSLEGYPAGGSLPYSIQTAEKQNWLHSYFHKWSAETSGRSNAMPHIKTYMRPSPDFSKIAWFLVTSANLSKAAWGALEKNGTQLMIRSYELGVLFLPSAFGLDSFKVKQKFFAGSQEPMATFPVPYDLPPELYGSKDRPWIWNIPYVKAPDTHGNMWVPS

O=C(OCC1OC(n2cc(Cl)c(=O)[nH]c2=O)C(OC(=O)c2ccccc2)C1OC(=O)c1ccccc1)c1ccccc1 (stereo not shown) [Compound 2f, 2′,3′,5′-Tri-O-benzoyl-5-chlorouridine]
IC50 (Tdp1): 3.6 ± 1.1 µM
CC50 at 3 days [1]: > 100 µM
change of cytotoxicity of the compound in the presence of topotecan (synergy) (HeLa cells [2]): Inactive

Cc1cn([C@@H]2O[C@H](CO)[C@@H](O)[C@H]2O)c(=O)[nH]c1=O [Compound 1e, 5-Methyluridine (Ribothymidine), reference compound]
IC50 (Tdp1): > 50 µM

O=C(OC[C@H]1O[C@@H](n2ccc(=O)[nH]c2=O)[C@H](OC(=O)c2ccccc2)[C@@H]1OC(=O)c1ccccc1)c1ccccc1 [Compound 2a, 2′,3′,5′-tri-O-benzoyluridine]
IC50 (Tdp1): 6.3 ± 0.4 µM
change of cytotoxicity of the compound in the presence of topotecan (synergy) (HeLa cells [2]): Inactive

O=C(O[C@@H]1[C@H](OC(=O)c2ccccc2)[C@@H](CO)O[C@H]1n1ccc(=O)[nH]c1=O)c1ccccc1 [Compound 4a, 2′,3′-di-O-benzoyluridine]
IC50 (Tdp1): 23 ± 6 µM
CC50 at 3 days [1]: > 100 µM

O=c1ccn([C@@H]2O[C@H](CO)[C@@H](O)[C@H]2O)c(=O)[nH]1 [Compound 1a, Uridine, reference compound]
IC50 (Tdp1): > 50 µM

COc1ccn([C@@H]2O[C@H](COC(=O)c3ccccc3)[C@@H](OC(=O)c3ccccc3)[C@H]2OC(=O)c2ccccc2)c(=O)n1 [Compound 7, 2′,3′,5′-Tri-O-benzoyl-2-oxo-4-metoxypyrimidine]
IC50 (Tdp1): 2.91 ± 0.01 µM
CC50 at 3 days [1]: > 100 µM
cells died (HeLa cells [3]): 30–45%
change of cytotoxicity of the compound in the presence of topotecan (synergy) (HeLa cells [2]): significantly (p = 0.05, Mann–Whitney U test) enhanced; also recorded: synergistic effect with topotecan; also recorded: enhanced the cytotoxicity
sensitizing effect on cytotoxicity of topotecan (HeLa cells [2]; [4]): doubled the cytotoxicity of topotecan; also recorded: doubling topotecan’s activity

O=c1[nH]c(=O)n([C@@H]2O[C@H](CO)[C@@H](O)[C@H]2O)cc1Cl [Compound 1f, 5-Chlorouridine, reference compound]
IC50 (Tdp1): > 50 µM

CC(=O)O[C@@H]1O[C@H](COC(=O)c2ccccc2)[C@@H](OC(=O)c2ccccc2)[C@H]1OC(=O)c1ccccc1 [Compound 9, 1-O-acetyl-2,3,5-tri-O-Bz-β-D-Rib]
IC50 (Tdp1): 4.2 ± 0.3 µM

O=c1[nH]c(=O)n([C@@H]2O[C@H](CO)[C@@H](O)[C@H]2O)cc1F [Compound 1b, 5-Fluorouridine, reference compound]
IC50 (Tdp1): > 50 µM

Cc1cc(=O)[nH]c(=O)n1[C@@H]1O[C@H](COC(=O)c2ccccc2)[C@@H](OC(=O)c2ccccc2)[C@H]1OC(=O)c1ccccc1 [Compound 2g, 2′,3′,5′-Tri-O-benzoyl-6-methyluridine]
IC50 (Tdp1): 3.4 ± 0.2 µM
CC50 at 3 days [1]: > 100 µM
change of cytotoxicity of the compound in the presence of topotecan (synergy) (HeLa cells [2]): significantly (p = 0.05, Mann–Whitney U test) enhanced; also recorded: synergistic effect with topotecan; also recorded: enhanced the cytotoxicity
sensitizing effect on cytotoxicity of topotecan (HeLa cells [2]; [4]): doubled the cytotoxicity of topotecan; also recorded: doubling topotecan’s activity

O=C(OC[C@H]1O[C@@H](n2ccc(=O)nc2)[C@H](OC(=O)c2ccccc2)[C@@H]1OC(=O)c1ccccc1)c1ccccc1 [Compound 5, 1-(2′,3′,5′-Tri-O-benzoyl-β-D-ribofuranosyl)-4-pyrimidone]
IC50 (Tdp1): 18 ± 1 µM
change of cytotoxicity of the compound in the presence of topotecan (synergy) (HeLa cells [2]): significant only at the maximum concentration, 100 μM; also recorded: at a concentration of 20 μM, no synergy with topotecan was observed; also recorded: enhanced the cytotoxicity
sensitizing effect on cytotoxicity of topotecan (HeLa cells [2]; compound at 50 μM, various doses of topotecan (significant at 10 μM)): weak sensitizing effect

O=c1[nH]c(=O)n([C@@H]2O[C@H](CO)[C@@H](O)[C@H]2O)cc1Br [Compound 1c, 5-bromouridine, reference compound]
IC50 (Tdp1): > 50 µM

O=C(OCC1OC(n2cc(F)c(=O)[nH]c2=O)C(OC(=O)c2ccccc2)C1OC(=O)c1ccccc1)c1ccccc1 (stereo not shown) [Compound 2b, 2′,3′,5′-Tri-O-benzoyl-5-fluorouridine]
IC50 (Tdp1): 8.5 ± 1.4 µM
CC50 at 3 days [1]: > 100 µM
cells died (HeLa cells [3]): 30–45%
change of cytotoxicity of the compound in the presence of topotecan (synergy) (HeLa cells [2]): Inactive

Nc1ccn([C@@H]2O[C@H](COC(=O)c3ccccc3)[C@@H](OC(=O)c3ccccc3)[C@H]2OC(=O)c2ccccc2)c(=O)n1 [Compound 8, 2′,3′,5′-tri-O-benzoylcytidine]
IC50 (Tdp1): 4.3 ± 0.7 µM
CC50 at 3 days [1]: > 100 µM
change of cytotoxicity of the compound in the presence of topotecan (synergy) (HeLa cells [2]): significantly (p = 0.05, Mann–Whitney U test) enhanced; also recorded: synergistic effect with topotecan; also recorded: enhanced the cytotoxicity
sensitizing effect on cytotoxicity of topotecan (HeLa cells [2]; [4]): doubled the cytotoxicity of topotecan; also recorded: doubling topotecan’s activity

O=C(OC[C@H]1O[C@@H](n2cc(I)c(=O)[nH]c2=O)[C@H](OC(=O)c2ccccc2)[C@@H]1OC(=O)c1ccccc1)c1ccccc1 [Compound 2d, 2′,3′,5′-tri-O-benzoyl-5-iodouridine]
IC50 (Tdp1): 0.6 ± 0.9 µM
CC50 at 3 days [1]: > 100 µM
change of cytotoxicity of the compound in the presence of topotecan (synergy) (HeLa cells [2]): Inactive

O=C(OC[C@H]1O[C@@H](n2ccc(=O)[nH]c2=O)[C@H](O)[C@@H]1O)c1ccccc1 [Compound 3a, 5′-O-benzoyluridine]
IC50 (Tdp1): > 100 µM

O=C(OC[C@H]1O[C@@H](n2cc(Br)c(=O)[nH]c2=O)[C@H](OC(=O)c2ccccc2)[C@@H]1OC(=O)c1ccccc1)c1ccccc1 [Compound 2c, 2′,3′,5′-Tri-O-benzoyl-5-bromouridine]
IC50 (Tdp1): 1.5 ± 0.9 µM
CC50 at 3 days [1]: > 100 µM
cells died (HeLa cells [3]): 30–45%
change of cytotoxicity of the compound in the presence of topotecan (synergy) (HeLa cells [2]): Inactive

O=c1[nH]c(=O)n([C@@H]2O[C@H](CO)[C@@H](O)[C@H]2O)cc1I [Compound 1d, 5-Iodouridine, reference compound]
IC50 (Tdp1): > 50 µM

CC[C@@]1(O)C(=O)OCc2c1cc1n(c2=O)Cc2cc3c(CN(C)C)c(O)ccc3nc2-1 [topotecan, reference compound]
IC50 (HeLa cells [3]; Homo sapiens, EZ4U assay, read-out: concentration causing the death of half the HeLa cells): 2 µM

Cc1cn([C@@H]2O[C@H](COC(=O)c3ccccc3)[C@@H](OC(=O)c3ccccc3)[C@H]2OC(=O)c2ccccc2)c(=O)[nH]c1=O [Compound 2e, 2′,3′,5′-Tri-O-benzoyl-5-methyluridine]
IC50 (Tdp1): 2.7 ± 0.6 µM
CC50 at 3 days [1]: > 100 µM
change of cytotoxicity of the compound in the presence of topotecan (synergy) (HeLa cells [2]): Inactive

O=C(OC[C@H]1O[C@@H](n2cccnc2=O)[C@H](OC(=O)c2ccccc2)[C@@H]1OC(=O)c1ccccc1)c1ccccc1 [Compound 6, 1-(2′,3′,5′-Tri-O-benzoyl-β-D-ribofuranosyl)-2-pyrimidone]
IC50 (Tdp1): 6 ± 0.7 µM
CC50 at 3 days [1]: > 100 µM
change of cytotoxicity of the compound in the presence of topotecan (synergy) (HeLa cells [2]): statistically insignificant
